From publication PMC7673538 (PLoS Biology, 2020)
Where “and” joins values, the source holds several entries; their conditions need not be identical. Identical values can stand only once. Like-named read-outs stand apart in the source and are kept apart here.

What was measured:
[1] = test system: HRV-B14; assay type: cell-based, human rhinovirus; settings: compound concentration 0.1 µM
[2] = in vitro; settings: monkey
[3] = in vitro; settings: human
[4] = test system: CV-A24 (strain Joseph); assay type: cell-based, coxsackievirus A24; settings: compound concentration 1 µM
[5] = test system: CV-A24v; assay: microbe, parasite or virus in culture; assay type: cell-based, coxsackievirus A24v; settings: for EC50: Coxsackievirus
[6] = test system: CV-B3; assay: microbe, parasite or virus in culture; assay type: cell-based, coxsackievirus B3; settings: for EC50: Enterovirus B
[7] = test system: CV-B3; assay: microbe, parasite or virus in culture; assay type: cell-based, coxsackievirus B3; settings: Enterovirus B, CVB3, BGM
[8] = test system: representative EVs and RVs; assay type: cell-based
[9] = test system: PV-1; assay: microbe, parasite or virus in culture; assay type: cell-based, poliovirus 1; settings: for EC50: Enterovirus C
[10] = test system: HRV-A2; assay: microbe, parasite or virus in culture; assay type: cell-based, human rhinovirus

COc1ccc(N(Cc2ccc(F)cc2)C(=O)c2ccco2)cc1 [Compound 1, N-(4-fluorobenzyl)-N-(4-methoxyphenyl)furan-2-carboxamide]
virus titer, TCID50/ml (Figure 2A) [1]: 10000000 TCID50/ml
CC50 ([2]; CC50): 50.65 ± 0.32 µM
CC50 ([2]; CC50 BGM Average): 50.6 µM
CC50 ([2]; Exp 1 CC50 BGM): 51 µM
CC50 ([2]; Exp 2 CC50 BGM): 50.3 µM
CC50 ([3]; CC50 Hap1 Average): 45.6 µM
CC50 ([3]; Exp 1 CC50 Hap1): 45.1 µM
CC50 ([3]; Exp 2 CC50 Hap1): 46.1 µM
virus titer, TCID50/ml (Figure 2A) [4]: 100000 TCID50/ml and 169824 TCID50/ml and 162341 TCID50/ml
Figure 7 dose-response raw data, CV-A24v (triplicate values) ([5]; Concentration 0.0046 µM): 10.497 and 8.759 and 8.625
Figure 7 dose-response raw data, CV-A24v (triplicate values) ([5]; Concentration 0.0137 µM): 9.388 and 8.898 and 11.4747
Figure 7 dose-response raw data, CV-A24v (triplicate values) ([5]; Concentration 0.0412 µM): 9.388 and 8.898 and 11.4747
Figure 7 dose-response raw data, CV-A24v (triplicate values) ([5]; Concentration 0.1235 µM): 8.529 and 8.161 and 15.8928
Figure 7 dose-response raw data, CV-A24v (triplicate values) ([5]; Concentration 0.3704 µM): 10.8611 and 15.1565 and 15.6474
Figure 7 dose-response raw data, CV-A24v (triplicate values) ([5]; Concentration 1.1111 µM): 10.0021 and 16.3837 and 13.9292
Figure 7 dose-response raw data, CV-A24v (triplicate values) ([5]; Concentration 11.1111 µM): 8.182 and 7.259 and 9.382
EC50 ([5]; HeLa R19, read-out: EC50 CV-A24v strain 110386): > 30 µM
EC50 ([5]; HeLa R19, read-out: EC50 CV-A24v strain 110389): > 30 µM
EC50 ([5]; HeLa R19, read-out: EC50 CV-A24v strain 110390): > 30 µM
EC50 ([5]; HeLa R19, read-out: EC50 CV-A24v strain 110392): > 30 µM
antiviral activity against CV-B3 (in words) [6]: inhibited
Figure 7 dose-response raw data, CV-B3 (triplicate values) ([6]; Concentration 0.001 µM): 8.4087 and 12.9113 and 13.3731
Figure 7 dose-response raw data, CV-B3 (triplicate values) ([6]; Concentration 0.0046 µM): 8.524 and 14.1813 and 13.8349
Figure 7 dose-response raw data, CV-B3 (triplicate values) ([6]; Concentration 0.0137 µM): 8.178 and 10.6023 and 11.4104
Figure 7 dose-response raw data, CV-B3 (triplicate values) ([6]; Concentration 0.0412 µM): 8.755 and 10.1405 and 13.8349
Figure 7 dose-response raw data, CV-B3 (triplicate values) ([6]; Concentration 0.1235 µM): 8.6396 and 9.794 and 10.7177
Figure 7 dose-response raw data, CV-B3 (triplicate values) ([6]; Concentration 0.3704 µM): 31.7298 and 16.0285 and 26.5345
Figure 7 dose-response raw data, CV-B3 (triplicate values) ([6]; Concentration 1.1111 µM): 69.1798 and 64.4511 and 60.4699
Figure 7 dose-response raw data, CV-B3 (triplicate values) ([6]; Concentration 3.3333 µM): 108.671 and 85.22 and 102.264
Figure 7 dose-response raw data, CV-B3 (triplicate values) ([6]; Concentration 10 µM): 111.619 and 82.0162 and 97.2661
EC50 ([6]; CVB3, HeLa R19): 1.92 ± 0.04 µM
EC50 ([6]; CVB3, HeLa R19, read-out: CV-B3 EC50 Average): 1.92 µM
EC50 ([6]; CVB3, HeLa R19, read-out: CV-B3 Exp 1 EC50): 1.87 µM
EC50 ([6]; CVB3, HeLa R19, read-out: CV-B3 Exp2 EC50): 1.96 µM
EC50 ([6]; CVB3, HeLa R19, read-out: EC50 CV-B3): 1.71 ± 0.07 µM
EC50 ([6]; CVB3, HeLa R19, read-out: EC50 CVB3 Experiement 3): 1.78 µM
EC50 ([6]; CVB3, HeLa R19, read-out: EC50 CVB3 Experiment 1): 1.72 µM
EC50 ([6]; CVB3, HeLa R19, read-out: EC50 CVB3 Experiment 2): 1.62 µM
EC50 ([6]; CVB3, HeLa R19, read-out: EC50 HelaR19 Average): 1.76 µM
EC50 ([6]; CVB3, HeLa R19, read-out: Exp 1 EC50 HelaR19): 1.65 µM
EC50 ([6]; CVB3, HeLa R19, read-out: Exp 2 EC50 HelaR19): 1.87 µM
EC50 ([7]; read-out: EC50 BGM Average): 1.66 µM
EC50 ([7]; read-out: Exp 1 EC50 BGM): 1.43 µM
EC50 ([7]; read-out: Exp 2 EC50 BGM): 1.89 µM
inhibition of contemporary/clinical isolates of EV-A71, CV-A24v and EV-D68 (in words) [8]: only inhibited the contemporary strains of EV-D68
Figure 7 dose-response raw data, PV-1 (triplicate values) ([9]; Concentration 0.0046 µM): 10.497 and 8.759 and 8.625
Figure 7 dose-response raw data, PV-1 (triplicate values) ([9]; Concentration 0.0137 µM): 10.497 and 8.759 and 8.625
Figure 7 dose-response raw data, PV-1 (triplicate values) ([9]; Concentration 0.0412 µM): 10.497 and 11.7005 and 9.1598
Figure 7 dose-response raw data, PV-1 (triplicate values) ([9]; Concentration 0.1235 µM): 10.7644 and 8.357 and 9.1598
Figure 7 dose-response raw data, PV-1 (triplicate values) ([9]; Concentration 0.3704 µM): 13.4388 and 8.357 and 9.294
Figure 7 dose-response raw data, PV-1 (triplicate values) ([9]; Concentration 1.1111 µM): 13.4388 and 8.357 and 9.294
Figure 7 dose-response raw data, PV-1 (triplicate values) ([9]; Concentration 3.3333 µM): 10.497 and 11.7005 and 9.1598
Figure 7 dose-response raw data, PV-1 (triplicate values) ([9]; Concentration 11.1111 µM): 10.7644 and 8.357 and 9.1598
Figure 7 dose-response raw data, PV-1 (triplicate values) ([9]; Concentration 33.3333 µM): 13.4388 and 8.357 and 9.294
Figure 7 dose-response raw data, PV-1 (triplicate values) ([9]; Concentration 100 µM): 9.294 and 9.1598
EC50 ([9]; HeLa R19, read-out: EC50 PV-1): > 30 µM
EC50 ([9]; HeLa R19, read-out: EC50 PV-1 Average): > 30 µM
EC50 ([9]; HeLa R19, read-out: EC50 PV-1 Experiement 3): > 30 µM
EC50 ([9]; HeLa R19, read-out: EC50 PV-1 Experiment 1): > 30 µM
EC50 ([9]; HeLa R19, read-out: EC50 PV-1 Experiment 2): > 30 µM
Figure 7 dose-response raw data, HRV-A2 (triplicate values) ([10]; Concentration 0.0412 µM): 7.118 and 8.563 and 11.1417
Figure 7 dose-response raw data, HRV-A2 (triplicate values) ([10]; Concentration 0.1235 µM): 6.499 and 7.221 and 5.983
Figure 7 dose-response raw data, HRV-A2 (triplicate values) ([10]; Concentration 0.3704 µM): 11.7607 and 8.975 and 8.666
Figure 7 dose-response raw data, HRV-A2 (triplicate values) ([10]; Concentration 3.3333 µM): 6.087 and 4.436 and 5.983
